According to ChEMBL document CHEMBL3507680, “University of Dundee, Gates Library screen for HepG2 cell viability”:

Assay: Human HepG2 cell viability assay in 384 well format
Format: toxicity, cell-based
Parameters: dose 125 nL, time 70.5 hour; cytotoxicity at 70.5 h: concentration not given beside the values
Details: HepG2 cells, read-out: Inhibition

Row | Compound | cytotoxicity at 70.5 h [%]
1 | COc1ccc(-n2cnnc2SCC(=O)NC(C)C)cn1 | -3.19
2 | Cc1cc(S(=O)(=O)N2CCCc3cc(Cl)ccc32)sc1C(=O)O | 2.62
3 | COCC(=O)NC1CCN(c2cccc(OC(F)(F)F)c2)C1=O (stereo not drawn) | -7.95
4 | CCC(=O)NC1CCN(c2cccc(OC(F)(F)F)c2)C1=O (stereo not drawn) | -2.63
5 | Cc1cccc(NC(=O)[C@@H]2CCCN2Cc2ccc(C#N)cc2F)n1 | -0.253
6 | CC(=O)N1CCC(C(=O)NC(C)c2cccc(OC(F)F)c2)CC1 (stereo not drawn) | 1.57
7 | Cc1cc(C(=O)N2CCN(CC(O)Cn3cccn3)CC2)c(C)o1 (stereo not drawn) | 6.38
8 | Cc1ccc(NC(=O)C2CCc3ccccc3N2)cc1 (stereo not drawn) | 15.2
9 | CC(=O)NCCC(=O)NCC1(c2c(F)cccc2F)CCCC1 | -3.9
10 | COC(=O)c1ccc(/C=C/c2ncc(C(=O)O)s2)cc1 | 3.38
11 | COc1cc(/C=C/c2ncc(C(=O)O)s2)cc(OC)c1 | 14.7
12 | CCS(=O)(=O)CC(=O)NCC1(c2c(F)cccc2F)CCCC1 | 18
13 | CC(C)c1nc2n(n1)CC(NCC(=O)NCCC1=CCCCC1)CC2 (stereo not drawn) | -0.816
14 | Cc1cc(=O)n(C)cc1NC(=O)NCc1cccc(F)c1 | -2.73
15 | CCC(CNC(=O)c1nc(=O)[nH][nH]1)Oc1cccc(F)c1 (stereo not drawn) | 0.426
16 | CCn1c(CNC(=O)Nc2nc(C)c(C)o2)nc2ccccc21 | 14.3
17 | CCC(CNC(=O)c1nc(=O)[nH][nH]1)Oc1cccc(C(F)(F)F)c1 (stereo not drawn) | -3.8
18 | Cc1cc(=O)n(C)cc1NC(=O)Cc1cccc(Cl)c1 | -0.253
19 | Cc1cc(=O)n(C)cc1NC(=O)Cc1cc(F)ccc1F | 2.11
20 | Cn1cc(CNc2ccc(F)c(N3CCCS3(=O)=O)c2)cn1 | -1.61
21 | O=C(CCCC1CCCC1)NS(=O)(=O)CC1CC1 | -2.25
22 | Cc1nnc(C(C)N(C)Cc2c(C)nn(-c3ccccc3)c2C)o1 (stereo not drawn) | -1.32
23 | CC(NCC1CCN(CCO)CC1)c1ccc(OC(F)(F)F)cc1 (stereo not drawn) | -2.01
24 | O=C(c1cccc(Cl)c1Cl)N1CCN(CC(O)Cn2cccn2)CC1 (stereo not drawn) | -2.95

Row | Compound | cytotoxicity at 70.5 h [%]
25 | CN(Cc1ccccc1NCc1ncc[nH]1)C(=O)c1cccs1 | 14
26 | CN(CCN1CCOCC1)C(=O)C1(c2ccc(F)cc2F)CCC1 | -2.7
27 | CC(NCC1CCN(CCO)CC1)c1cccnc1 (stereo not drawn) | 28.1
28 | Cc1cc(-n2cncn2)ccc1C(=O)N(CC(F)(F)F)C(C)C | -7.81
29 | Cc1ccsc1CN(C)Cn1nccc1-c1cccnc1 | -2.36
30 | CC1(C)CCC(C(=O)N2CCCO2)c2ccccc21 (stereo not drawn) | 9.21
31 | Cc1cc(-n2cncn2)ccc1C(=O)N(C)CC(F)(F)C(F)(F)F | -5.19
32 | CC1(C)CCC(C(=O)O)c2ccccc21 (stereo not drawn) | -8.46
33 | CN(Cc1ccc(Br)s1)Cn1nc(-c2ccccc2)oc1=O | -9.53
34 | Cc1ncc(CN(C)Cn2nc(-c3ccccc3)oc2=O)s1 | -13.1
35 | CN(C(=O)CNC(=O)CC(C)(C)C)C1CCN(c2ccccn2)CC1 | -6.78
36 | Cc1ccsc1CN(C)c1nc2c(cnn2C(C)(C)C)c(=O)[nH]1 | -4.96
37 | Cc1nc(-c2ccccc2)ccc1C(=O)N1CCn2c(C)nnc2C1 | -11.8
38 | CN(C(=O)CNc1ccc(C#N)cc1)C1CCN(c2ccccn2)CC1 | -10
39 | Cn1nnc2cc(C(=O)NS(=O)(=O)c3cccc(C#N)c3)ccc21 | -5.98
40 | Cc1cc(C)c2c(c1)C(NC(=O)CSCC(N)=O)CCO2 (stereo not drawn) | -9.85
41 | OC(CN(Cc1ccccc1)Cc1cscn1)c1ccco1 (stereo not drawn) | -9.5
42 | CCc1noc(CC)c1CNC(=O)Nc1cccc([S+](C)[O-])c1 (stereo not drawn) | -1.9
43 | CCc1noc(CC)c1CNC(=O)Nc1cccc(C(=O)N(C)C)c1 | -1.22
44 | Cc1noc(C)c1CN(C)Cn1nccc1-c1cccnc1 | 10.8
45 | O=C(Nc1ccc(F)c(-n2cccc2)c1)NC1(CCO)CCOCC1 | -10.8
46 | CCn1c(CN(C)C(=O)c2ccc(OC)nc2)nc2ccccc21 | -11.7
47 | CN(C)CC1CCN(Cc2nccn2CC(F)(F)F)CC1 | -0.976
48 | CCC(C)NC(=O)CS(=O)(=O)Cc1nc(-c2cccs2)no1 (stereo not drawn) | -8.46

Row | Compound | cytotoxicity at 70.5 h [%]
49 | Cc1nn(-c2ccccc2)nc1C(=O)NCC(c1ccco1)N(C)C (stereo not drawn) | -15.6
50 | O=C(CCS(=O)(=O)C1CCCC1)NCCc1cccnc1 | -6.71
51 | O=C(CC1CCCO1)Nc1ccn(Cc2cccc3cccnc23)n1 (stereo not drawn) | -6.79
52 | CCc1nnc2n1CCN(C(=O)c1cnn(C)c1C1CC1)C2 | 8.38
53 | O=C(COCC1CC1)Nc1ccn(Cc2cccc3cccnc23)n1 | -1.28
54 | CC(C)c1nnc2n1CCN(C(=O)c1cnc(C3CC3)s1)C2 | -7.9
55 | CCC(C)(C)NC(=O)Nc1nnc(-c2ccccn2)s1 | -10.1
56 | Cc1cnn(C2CCN(Cc3ccccc3)C2)c1N (stereo not drawn) | 16
57 | Nc1ccnn1C1CCN(Cc2ccccc2)C1 (stereo not drawn) | 2.28
58 | CNC(=O)N(Cc1c(F)cccc1F)C1CCCC1 | -3.72
59 | Cc1nc(C2CCCCC2)sc1C(=O)O | 0.584
60 | Cc1occc1CNC(=O)Nc1ccc2nc(N3CCOCC3)oc2c1 | -9.42
61 | CN(CCCc1n[nH]c(N)c1C#N)C(=O)NC1CC1 | -2.78
62 | O=C1OCCC1N1CCN(c2ccc(O)cc2)CC1 (stereo not drawn) | 10.3
63 | Cc1ccc(C(CNC(=O)Cc2nc3ncccn3n2)N(C)C)cc1 (stereo not drawn) | -10.7
64 | NC(=O)Nc1cc(Br)cnc1OCC(F)(F)F | -7.02
65 | CC(=O)Nc1cc(Br)cnc1OCC(F)(F)F | 20.4
66 | NC(=O)c1cccc(CCNCc2cccs2)c1 | -3.84
67 | COCC(=O)Nc1cc(Br)cnc1OCC(F)(F)F | -11.8
68 | CN1CCN(C2CCN(c3cnc4ccccc4n3)CC2)C1=O | -12.4
69 | O=C1C(N2CCN(c3ccc(O)cc3)CC2)CCN1C1CCOCC1 (stereo not drawn) | 24.5
70 | O=C(c1ncncc1Cl)N1CCN(c2ccc(Cl)cc2)CC1 | -8.8
71 | O=S(=O)(CCC1CCCO1)NCc1ncc(-c2ccccc2)o1 (stereo not drawn) | 5
72 | Cn1cc(C(=O)NC2CCCC2)c(-c2cccnc2)n1 | -10.4

Row | Compound | cytotoxicity at 70.5 h [%]
73 | NC(=O)c1cccc(CCNCc2cnc(-c3cccs3)s2)c1 | -12.1
74 | Cc1cc(C)n(-c2ccc(C(C)NS(N)(=O)=O)cc2)n1 (stereo not drawn) | -11.9
75 | Cn1c(C(N)=O)ccc1-c1ccccc1 | 6.66
76 | Cc1cc(C)n(-c2ccc(C(C)NS(=O)(=O)CCCS(C)(=O)=O)cc2)n1 (stereo not drawn) | 19.6
77 | O=C1C(N2CCN(c3ccccc3Cl)CC2)CCN1C1CCOCC1 (stereo not drawn) | -5.64
78 | CC/C=C(/C)C(=O)NCc1ccc(OC)nc1 | -13.3
79 | CC(CCNC(=O)N(C)CC1CCOCC1)N1CCCCC1 (stereo not drawn) | -7.97
80 | O=C(Nc1ccc(-n2cccn2)c(F)c1)C1CCN(C(=O)C2CC2)CC1 | -0.357
81 | CC(=O)N(C)CC(=O)Nc1ccc(C)cc1OCc1ccccc1 | -1.76
82 | Cc1ccc(-c2n[nH]cc2CNCC2CCS(=O)(=O)C2)o1 (stereo not drawn) | 11.2
83 | CC(=O)NCCCC(=O)NC1(c2ccc(Cl)c(Cl)c2)CC1 | 2.93
84 | CS(=O)(=O)NCC(=O)NC1(c2ccc(Cl)c(Cl)c2)CC1 | -2.05
85 | Cc1cc(C2CCCN2c2ncc(C(N)=O)cc2Cl)no1 (stereo not drawn) | -0.208
86 | CCS(=O)(=O)CC(=O)NC1(c2ccc(Cl)c(Cl)c2)CC1 | -2.35
87 | Cn1cc(C2CCCN2c2ncnc3[nH]ccc23)cn1 (stereo not drawn) | 5.41
88 | Cc1nn(C)c(C)c1C1CCCN1c1ncnc2[nH]ccc12 (stereo not drawn) | 0.0825
89 | COc1ccc(C(=O)NCCCC2(C3OCCO3)CCOCC2)cc1 | -1.34
90 | CN(C(=O)Nc1ccccn1)C1CCCN(c2ccccc2)C1=O (stereo not drawn) | 3.77
91 | CCN(CCCNc1ncnc2cc(F)c(F)cc12)S(C)(=O)=O | -1.36
92 | N#Cc1cnc(NCCCN2C(=O)COc3ccccc32)c(Cl)c1 | 2.01
93 | COc1c(NC(=O)C(C)CCOc2ccccc2)c(C)nn1C (stereo not drawn) | 7.42
94 | Cc1nn(C)c(Cl)c1C1CCCN1c1ncnc2[nH]ccc12 (stereo not drawn) | 12.9
95 | C1CCCN(c2nc(C3CC3)no2)CC1 | 1.49
96 | CC(C)c1nsc(N2CCn3c(nnc3C(F)(F)F)C2)n1 | 4.03

Row | Compound | cytotoxicity at 70.5 h [%]
97 | Cc1ccc(NC(=O)N(CCO)CCO)c(OCc2ccccc2)c1 | 10.5
98 | Cc1nnc(Cn2cc(I)cc(C)c2=O)o1 | 3.35
99 | CN1C(=O)CCN(C(=O)C2CCCCC2)c2ccccc21 | 9.73
100 | COc1ccc2c(ccn2CC(=O)N2CCCC2c2cnn(C)c2)c1 (stereo not drawn) | 0.452
101 | N#Cc1c(Cl)nsc1NCCCN1C(=O)COc2ccccc21 | 8.75
102 | C1CCC(N2CCCN(c3nc(C4CC4)no3)CC2)C1 | 0.93
103 | C1CN(c2nc(C3CC3)no2)CCN(C2CCOCC2)C1 | -0.117
104 | CCCNC(=O)C(C)Nc1cccc(Oc2ccc(C#N)cn2)c1 (stereo not drawn) | 24.3
105 | CNS(=O)(=O)CCCN1CCCN(Cc2ccccc2)CC1C (stereo not drawn) | 14.3
106 | COC(=O)CCCNC(=O)Nc1ccccc1OC | 12.5
107 | Cc1ccc(C)c(CS(=O)(=O)CC(=O)NC(C)c2ccc(F)cc2F)c1 (stereo not drawn) | 8.01
108 | Cc1ccc(C)c(CS(=O)(=O)CC(=O)Nc2ccc(F)cc2F)c1 | -7.2
109 | O=C(CNC(=O)c1cnc2ccccc2c1O)NCCCn1ccnc1 | -16.5
110 | O=C(CCCNC(=O)Nc1ccc(F)cc1F)Nc1cn[nH]c1 | -5.08
111 | CN(CC(=O)NC(Cc1ccccc1)C1CCCC1)S(C)(=O)=O (stereo not drawn) | -3.31
112 | COc1ccccc1NC(=O)NCCCC(=O)Nc1cn[nH]c1 | 13.3
113 | COc1cc(C(C#N)NC(=O)CC2=CCCCC2)cc(OC)c1OC (stereo not drawn) | -5.49
114 | Cc1n[nH]cc1CNC1(c2ccc(F)cc2)CCCC1 | -7.33
115 | Cc1n[nH]cc1CNC1(Cc2ccc(Br)cc2)CCCCC1 | -1.97
116 | CCn1nc(C)cc1C(=O)N1CCOc2ccc(OC)cc21 | -4.62
117 | CNS(=O)(=O)c1csc(C(=O)NCc2sccc2C)c1 | -4.77
118 | CCCc1cc(NC(=O)c2cccc(N3CCCNC3=O)c2)n[nH]1 | -6.61
